Laboratory results taken from US6011000A, “Compositions for the treatment of blood disorders” (priority 1995, dated 2000).

Assays:
[1] = test system: γ-globin promoter fragment containing FRE-γ1; test: Gel mobility shift assay with FRE-γ1 promoter fragment; parameters: species or system human
γ-globin gene promoter = test: In vivo footprinting of the γ-globin promoter; parameters: species or system human
Protocol: To determine whether this increase was due to the transcriptional modulation of the γ-globin genes and, if so, to examine whether protein-DNA interactions of regulatory sequences for γ-globin gene expression have been changed, in vivo footprinting analysis of the γ-globin gene promoter and HSS-II region of the locus control region (LCR) were performed. […] Compared to conventional in vitro footprinting methods, which are ordinarily employed to analyze protein-DNA interactions for promoter regions and fail to disclose tissue-specific binding of nuclear proteins to cis-acting elements, in vivo footprinting technique is able to provide bona fide information on transcription factors binding to cis-acting elements that reflects in vivo situations.
Erythroid cell-rich fractions were prepared from patients' peripheral blood or bone marrow before and during treatment, and were in vivo methylated using DMS. Ligation-mediated polymerase chain reaction (LM-PCR) was performed (J. L. Mueller et al., Sci. 246:780-86, 1989). Briefly, 3-7 μg of DNA was suspended in 15 μl of solution A (40 mM Tris-HCl, pH 7.7, 50 mM NaCl) containing […] of primer. First-strand synthesis was performed by adding 7.5 μl of solution B (20 mM MgCl2, 20 mM DTT, 60 μM dNTP) and 1.5 μl of 1:4 diluted Sequenase version 2.0 (United States Biochemical; Cleveland, Ohio) with TE and incubating at 50° C. for 10 minutes. The reaction was quenched by heating at 68° C. for 10 minutes, adding 6 μl of 310 mM Tris-HCl, pH 7.7, and subsequently extracting with phenol/chloroform/isoamyl alcohol (25:24:1) and with ether. […] All of the footprints were analyzed two or more times to ensure reproducibility.
In the γ-globin gene promoter, a DNA fragment extending up to -200 bp relative to the transcription start site is sufficient to direct efficient transcription of the γ-globin genes (K. T. McDonagh et al., J. Biol. Chem. 266:11965-74, 1991; M. J. Urich Blood 75:990-99, 1990). […] Erythroblasts from a patient with sickle cell anemia, before and after butyrate treatment were analyzed. […]

γ-globin mRNA = details: patients with globin disorders; cited from earlier work
[2] = test system: γ-globin promoter (-61 construct, K562 cells); type: cell-based, human
Excerpt: Functional assay underscores the important role of FRE-γ1 in γ-globin gene expression in K562 cells. To ascertain whether the FRE elements of the γ-globin promoter that were identified by in vivo footprinting were indeed involved in arginine butyrate inducibility for γ-globin gene expression, a series of 5' deletion constructs of the γ-globin promoter, extending from -256 to -61, were constructed and linked them to the NEO gene. Activity of the NEO gene of these constructs, in response to arginine butyrate treatment, was examined by transfecting these reporters into K562 cells. In K562 cells, a construct driven by 256 bp of promoter was able to direct NEO activity expression, resulting in colony formation. […] Deletion to position -61 reduced promoter activity to 33-40% of the activity seen with the -256 bp construct.

[3] = test system: hemoglobin polymerization; details: artificially deoxygenated blood; cited from earlier work
[4] = test system: fetal globin (gamma globin); test: Fetal globin expression in erythroid progenitor cells from cord blood; type: cell-based, human
Protocol: Compositions were tested for activity in inducing fetal globin expression and protein production in erythroid progenitor cells cultured from human cord blood and analyzed as described by S. P. Perrine et al. (Blood 74: 454-60, 1989). Briefly, mononuclear cells were cultured in IMDM with 30% fetal calf serum and 2 units erythropoietin per ml to induce erythroid differentiation. Colonies were harvested on day 12-13, incubated with radio-labelled (^3 H) leucine, and further incubated in leucine-free media, still in the presence of compounds, overnight. Globin composition in the erythroid cells was analyzed by laser densitometry of electrophoretically separated globin chains stained with Coomassie blue, and by autoradiography. Treated cells were incubated for 12-13 days (Table 2, Experiments A and B) or overnight (Table 2, Experiment C) in the presence of the indicated compounds and compared to untreated control cells cultured from the same human subject.

[5] = test system: proximal promoter of the gamma globin gene (K562 cells); test: Gamma globin promoter-neomycin transfection (61 bp proximal promoter), G418-resistant colonies; type: cell-based, human
Protocol: Gamma globin promoter-neomycin transfection experiments were performed to determine if compounds act by inducing an increase in activity from the proximal promoter of the gamma globin gene. Constructs containing 61 bp of the proximal gamma globin promoter were linked to the reporter gene for neomycin phosphotransferase (NEO) and transfected into permissive K562 cells by electroporation. After 18 hours, transfected cells were passed at 10^3 cells per well into RPMI media containing G418 (neomycin), which kills all mammalian cells unless the gene for NEO is expressed. Phenoxyacetic acid and thiophenoxyacetic acid were added to some of the cells plated into the RPMI/G418 media at concentrations of 1 mM. Cultures were incubated for 8 weeks with media changes performed as needed. Colonies which survived and grew in the presence of G418 were scored and the number of such colonies was compared to those generated when the cells were plated into G418 media without the test compounds. […] There was a greater than 6-fold (>600%) increase in proportions of colonies surviving the presence of phenoxyacetic acid (6/24 wells) and a three-fold (300%) increase in survival in the presence of thiophenoxyacetic acid (3/24 wells).

[6] = erythroblast nuclear extracts of thalassemic patients (FIG. 17)
[7] = Homo sapiens, K562, 1344 h, read-out: increase in proportions of colonies surviving

| Structure (SMILES) | new binding activity (activator) [1, 6] | other binding activity (repressor) [1, 6] | activator and repressor bands in non-responder ([1]; patient with sickle cell anemia who did not respond) | footprints in the γ-globin promoter (γ-globin gene promoter; erythroblasts of a sickle cell anemia patient, post-treatment (FIG. 13)) | induction of transcription factors interacting with the γ-globin gene promoter (γ-globin gene promoter; sickle cell anemia patient) | degree of protection on G residues in FRE-γ1 (γ-globin gene promoter; β-thalassemia and sickle cell anemia patients (FIG. 14)) | levels of γ-globin mRNA (γ-globin mRNA) | induction of construct activity [2] | inhibition of polymerization [3] | Gamma/(Gamma + Beta) ([4]; Exp. A, 0.1 mM, 12-13 days, untreated 76.0%) | Gamma/(Gamma + Beta) ([4]; Exp. B, 0.5 mM, 12-13 days, untreated 25.4%, 27.5%) | Gamma/(Gamma + Beta) ([4]; Exp. C, 0.5 mM, overnight, untreated 52.0%) | colonies surviving ([5]; 1 mM, 8 weeks in G418, none of 24 wells without compound) | activation at 1000 µM [5, 7] | fold induction at 1000 µM [5, 7] |
| --- | --- | --- | --- | --- | --- | --- | --- | --- | --- | --- | --- | --- | --- | --- | --- |
| CCCC(=O)O [AB, arginine butyrate] | a new binding activity appeared | disappeared | no increase in the intensity of the activator band or loss of the repressor band | four major footprints in the fetal response elements | induces multiple transcription factors which interact with the γ-globin gene promoter, resulting in activation | consistently increased | increase in response to butyrate treatment | 2.5-4 fold | – | – | – | – | – | – | – |
| O=C(O)COc1ccccc1 [PAA, Phenoxyacetic acid] | – | – | – | – | – | – | – | – | inhibit polymerization | 82.0% | 38.8% | 55.6% | 6/24 | > 600% | > 6 |
